Results from US8791264B2 (Purdue Pharma L.P., priority 2006, dated 2014).

The molecules below were run against T1, N-type calcium channel (NTCC) (Homo sapiens, UniProt Q00975) (assay: FLIPR calcium mobilization assay for N-type calcium channel). Settings: calcium mobilization in vitro assay; differentiated IMR32 cells.
T1 construct: host or cells: IMR32 cells differentiated with dibutyryl cAMP and bromodeoxyuridine
Type: cell-based
Procedure: Unless noted otherwise, cell culture reagents were purchased from Mediatech of Herndon, Md. IMR32 cells (American Type Culture Collection, ATCC, Manassas, Va.) were routinely cultured in growth medium consisting of minimum essential medium containing 10% fetal bovine serum (FBS, Hyclone, Logan, Utah), 100 U/mL penicillin, 100 μg/mL streptomycin, 2 mM L-glutamine, 1 mM sodium pyruvate, and 1× MEM non-essential amino acids. 80-90% confluent flasks of cells were differentiated using the following differentiation medium: Growth medium plus 1 mM dibutyryl cyclic AMP (Sigma, St. Louis, Mo.), and 2.5 μM bromodeoxyuridine (Sigma). Cells were differentiated for 8 days by replacing differentiation medium every 2-3 days.
FLIPR Calcium Mobilization Assay for N-Type Calcium Channel.
One day prior to performing this assay, differentiated IMR32 cells were treated with 1× CellStripper, and seeded on poly-D-lysine-coated 96-well clear-bottom black plates (Becton Dickinson, Franklin Lakes, N.J.) at 200,000 cells/well. On the day of the assay, the cell plates were washed with IMR32 buffer (127 mM NaCl, 1 mM KCl, 2 mM MgCl2, 700 μM NaH2PO4, 5 mM CaCl2, 5 mM NaHCO3, 8 mM HEPES, 10 mM glucose, pH 7.4), then pre-stimulated with KCl and loaded as follows: 0.05 mL of IMR32 buffer, 0.05 mL of each compound tested diluted in IMR32 buffer containing 20 μM nitrendipine (Sigma), and 0.1 mL KCl dissolved in IMR32 buffer, plus Fluo-4 were added (3 μM final concentration, Molecular Probes, Eugene, Oreg.). Final test compound concentrations ranged from about 846 pM to about 17 μM, final nitrendipine concentration was 5 μM, and final KCl concentration was 90 mM. After 1 hour, the cells were washed twice with 0.05 mL of each compound is tested in nitrendipine-containing IMR32 buffer (no KCl or Fluo-4), and then replaced with 0.1 mL of each compound tested in nitrendipine-containing IMR32 buffer. Plates were then transferred to a Fluorimetric Imaging Plate Reader (FLIPR^96, Molecular Devices, Inc., Sunnyvale, Calif.) for assay. The FLIPR measured basal Fluo-4 fluorescence for 315 seconds (i.e., 5 minutes and 15 seconds), then added 0.1 mL KCl agonist dissolved in IMR32 buffer and measured fluorescence for another 45 seconds. Final test compound concentrations on the cells after FLIPR read ranged from about 846 pM to about 17 μM, final nitrendipine concentration was 5 μM, and final KCl concentration was 90 mM. Data were collected over the entire time course and analyzed using Excel, Graph Pad Prism (version 3.02, Graph Pad, San Diego, Calif.), or an in-house non-linear regression analysis software.

T1 sequence (Q00975 whole entry): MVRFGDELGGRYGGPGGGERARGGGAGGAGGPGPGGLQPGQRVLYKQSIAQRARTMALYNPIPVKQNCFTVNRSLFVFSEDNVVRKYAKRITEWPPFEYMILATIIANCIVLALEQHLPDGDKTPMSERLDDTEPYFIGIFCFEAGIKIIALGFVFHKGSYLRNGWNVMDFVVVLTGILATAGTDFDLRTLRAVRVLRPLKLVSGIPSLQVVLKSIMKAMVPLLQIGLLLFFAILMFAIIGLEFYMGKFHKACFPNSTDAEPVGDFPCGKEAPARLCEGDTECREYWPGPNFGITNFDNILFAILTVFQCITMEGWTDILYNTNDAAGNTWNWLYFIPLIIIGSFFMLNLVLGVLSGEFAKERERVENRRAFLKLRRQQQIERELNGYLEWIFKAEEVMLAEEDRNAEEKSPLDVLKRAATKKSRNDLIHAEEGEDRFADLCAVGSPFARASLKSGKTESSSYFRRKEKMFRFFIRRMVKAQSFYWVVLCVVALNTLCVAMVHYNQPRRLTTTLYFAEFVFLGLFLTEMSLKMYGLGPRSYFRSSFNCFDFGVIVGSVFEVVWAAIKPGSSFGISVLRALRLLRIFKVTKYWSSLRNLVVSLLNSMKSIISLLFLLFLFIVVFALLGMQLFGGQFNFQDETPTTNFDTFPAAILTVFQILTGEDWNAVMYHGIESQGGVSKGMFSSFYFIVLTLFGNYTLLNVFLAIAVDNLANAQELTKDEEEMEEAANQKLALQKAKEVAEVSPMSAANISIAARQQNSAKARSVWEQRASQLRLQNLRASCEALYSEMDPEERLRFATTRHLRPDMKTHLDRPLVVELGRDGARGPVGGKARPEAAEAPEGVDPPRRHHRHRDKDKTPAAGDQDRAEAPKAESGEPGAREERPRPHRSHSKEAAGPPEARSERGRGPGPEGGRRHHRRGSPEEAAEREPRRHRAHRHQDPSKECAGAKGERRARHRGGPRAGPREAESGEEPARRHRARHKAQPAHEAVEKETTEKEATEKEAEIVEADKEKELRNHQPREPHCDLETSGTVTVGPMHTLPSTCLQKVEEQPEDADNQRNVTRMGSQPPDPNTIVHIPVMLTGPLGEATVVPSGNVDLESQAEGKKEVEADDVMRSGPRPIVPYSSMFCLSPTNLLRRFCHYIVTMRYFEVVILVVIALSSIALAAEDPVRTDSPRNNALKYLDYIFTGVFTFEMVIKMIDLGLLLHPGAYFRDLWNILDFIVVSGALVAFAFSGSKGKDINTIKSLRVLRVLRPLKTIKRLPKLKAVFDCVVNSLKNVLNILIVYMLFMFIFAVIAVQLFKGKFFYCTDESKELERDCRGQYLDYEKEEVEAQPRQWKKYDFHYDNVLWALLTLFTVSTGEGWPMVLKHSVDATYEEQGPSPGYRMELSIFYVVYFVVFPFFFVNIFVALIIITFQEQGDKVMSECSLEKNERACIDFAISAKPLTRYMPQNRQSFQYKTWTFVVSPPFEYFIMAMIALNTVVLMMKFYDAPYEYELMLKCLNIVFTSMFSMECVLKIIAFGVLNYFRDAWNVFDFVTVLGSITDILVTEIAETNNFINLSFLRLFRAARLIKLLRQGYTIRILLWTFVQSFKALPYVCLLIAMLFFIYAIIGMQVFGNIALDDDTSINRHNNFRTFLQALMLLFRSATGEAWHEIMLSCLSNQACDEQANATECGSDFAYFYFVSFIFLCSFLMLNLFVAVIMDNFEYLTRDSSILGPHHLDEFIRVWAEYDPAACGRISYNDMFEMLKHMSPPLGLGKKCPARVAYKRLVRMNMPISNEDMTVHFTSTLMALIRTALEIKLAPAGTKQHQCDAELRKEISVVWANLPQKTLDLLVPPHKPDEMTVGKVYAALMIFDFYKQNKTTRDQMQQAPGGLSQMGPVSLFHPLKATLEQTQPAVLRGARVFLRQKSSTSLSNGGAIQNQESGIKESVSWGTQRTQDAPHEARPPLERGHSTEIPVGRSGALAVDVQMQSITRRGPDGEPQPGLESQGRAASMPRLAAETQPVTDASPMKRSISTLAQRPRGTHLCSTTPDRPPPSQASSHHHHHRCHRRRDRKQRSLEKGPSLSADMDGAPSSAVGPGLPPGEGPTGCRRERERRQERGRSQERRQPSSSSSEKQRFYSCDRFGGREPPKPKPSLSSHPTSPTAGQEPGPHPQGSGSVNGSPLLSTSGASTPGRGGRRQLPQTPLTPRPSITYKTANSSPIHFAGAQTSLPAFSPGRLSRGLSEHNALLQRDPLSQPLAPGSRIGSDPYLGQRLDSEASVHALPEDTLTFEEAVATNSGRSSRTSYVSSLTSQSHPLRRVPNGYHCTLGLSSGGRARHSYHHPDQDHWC
T1 sequence (P54289 25-956 partner limits assumed): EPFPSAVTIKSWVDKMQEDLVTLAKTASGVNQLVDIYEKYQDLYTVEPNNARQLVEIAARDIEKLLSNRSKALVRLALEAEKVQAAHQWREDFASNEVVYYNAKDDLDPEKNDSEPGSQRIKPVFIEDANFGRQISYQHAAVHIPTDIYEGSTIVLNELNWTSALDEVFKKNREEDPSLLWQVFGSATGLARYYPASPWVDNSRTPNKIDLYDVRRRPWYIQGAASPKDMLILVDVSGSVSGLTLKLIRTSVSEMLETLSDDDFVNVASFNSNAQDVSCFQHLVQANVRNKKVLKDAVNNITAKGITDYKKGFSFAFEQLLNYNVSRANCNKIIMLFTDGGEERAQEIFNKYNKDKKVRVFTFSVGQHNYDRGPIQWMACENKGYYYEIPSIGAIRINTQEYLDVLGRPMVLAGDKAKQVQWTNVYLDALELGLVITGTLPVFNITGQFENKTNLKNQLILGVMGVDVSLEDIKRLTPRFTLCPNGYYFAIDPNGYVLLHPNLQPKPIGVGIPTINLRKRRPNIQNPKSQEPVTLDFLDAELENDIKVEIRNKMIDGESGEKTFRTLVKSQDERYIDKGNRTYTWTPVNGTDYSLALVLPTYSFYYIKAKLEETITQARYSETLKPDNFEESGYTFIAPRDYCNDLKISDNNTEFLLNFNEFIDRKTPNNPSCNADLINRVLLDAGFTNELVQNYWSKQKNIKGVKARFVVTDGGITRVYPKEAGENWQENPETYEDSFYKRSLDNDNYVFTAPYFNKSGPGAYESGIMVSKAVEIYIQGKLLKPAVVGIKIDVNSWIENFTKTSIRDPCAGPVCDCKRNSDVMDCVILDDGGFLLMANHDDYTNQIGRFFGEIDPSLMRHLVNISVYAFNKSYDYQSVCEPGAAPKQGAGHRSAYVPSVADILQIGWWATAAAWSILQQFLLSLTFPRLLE
T1 sequence (P54289 957-1103 partner limits assumed): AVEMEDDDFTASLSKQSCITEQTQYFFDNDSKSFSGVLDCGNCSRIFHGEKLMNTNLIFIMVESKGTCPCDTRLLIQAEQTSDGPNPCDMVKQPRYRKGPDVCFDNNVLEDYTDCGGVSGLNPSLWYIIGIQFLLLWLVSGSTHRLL
T1 sequence (P54284 whole entry partner): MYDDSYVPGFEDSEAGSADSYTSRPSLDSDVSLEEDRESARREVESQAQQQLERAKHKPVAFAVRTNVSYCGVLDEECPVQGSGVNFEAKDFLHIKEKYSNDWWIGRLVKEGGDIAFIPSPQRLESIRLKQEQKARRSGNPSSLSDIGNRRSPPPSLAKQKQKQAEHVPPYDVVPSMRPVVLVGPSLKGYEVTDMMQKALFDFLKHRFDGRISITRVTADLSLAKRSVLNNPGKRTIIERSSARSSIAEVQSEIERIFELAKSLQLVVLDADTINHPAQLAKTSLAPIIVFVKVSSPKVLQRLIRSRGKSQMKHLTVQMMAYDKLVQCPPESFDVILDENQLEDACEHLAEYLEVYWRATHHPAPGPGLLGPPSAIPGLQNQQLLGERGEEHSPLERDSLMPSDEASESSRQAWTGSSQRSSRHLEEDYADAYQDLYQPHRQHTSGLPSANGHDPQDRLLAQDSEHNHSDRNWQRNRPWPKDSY

Question: With Cc1cccc(S(=O)(=O)N(C2CC2)C2CCN(CC(=O)Nc3cc(C(F)(F)F)cc(C(F)(F)F)c3)CC2)c1 [Compound 69, N-(3,5-Bis-trifluoromethylphenyl)-2-{4-[cyclopropyl-(toluene-3-sulfonyl)amino]-piperidin-1-yl}-acetamide] as the molecule, how does the IC50 read?
Answer: 3.81 µM

Question: Which IC50 does the source give for COc1ccc(CN[C@H](C(=O)N2CCC(N(C(C)C)S(=O)(=O)c3cccc(C(F)(F)F)c3)CC2)C(C)C)cc1 [Compound 88a, (S)—N-Isopropyl-N-{1-[2-(4-methoxybenzylamino)-3-methylbutyryl]-piperidin-4-yl}-3-trifluoromethylbenzenesulfonamide] here?
Answer: 1.73 µM

Question: Which IC50 does the source give for O=C(CC(=O)N1CCC(NS(=O)(=O)c2cccc(C(F)(F)F)c2)CC1)Nc1ccc(F)cc1F [Compound 115, N-(2,4-Difluorophenyl)-3-oxo-3-[4-(3-trifluoromethylbenzenesulfonylamino)-piperidin-1-yl]-propionamide] here?
Answer: 3.18 µM

Question: How did the IC50 turn out when CCC(NCc1ccccc1)C(=O)N1CCC(N(C(C)C)S(=O)(=O)c2cccc(C(F)(F)F)c2)CC1 (stereo not shown) [Compound 91, N-[1-(2-Benzylaminobutyryl)-piperidin-4-yl]-N-isopropyl-3-trifluoromethylbenzenesulfonamide] was run?
Answer: 1.15 µM

Question: For CN(C1CCN(CC(=O)Nc2cc(C(F)(F)F)cc(C(F)(F)F)c2)CC1)S(=O)(=O)c1ccccc1 [Compound 68, 2-[4-(Benzenesulfonyl-methyl-amino)-piperidin-1-yl]-N-(3,5-bis-trifluoromethylphenyl)-acetamide], which IC50 is on record?
Answer: 1.59 µM

Question: CC(C)CNC(=O)CN1CCC(N(C)S(=O)(=O)c2ccccc2)CC1 [2-[4-(benzenesulfonyl-methyl-amino)-piperidin-1-yl]-N-isobutyl-acetamide] was tested. Which IC50 did it give?
Answer: > 20 µM

Question: With CC(C)CNC(=O)CN1CCC(N(C2CC2)S(=O)(=O)c2cccc(F)c2)CC1 [Compound 36, 2-{4-[Cyclopropyl-(3-fluorobenzenesulfonyl)amino]-piperidin-1-yl}-N-isobutylacetamide] as the molecule, how does the IC50 read?
Answer: 8 µM

Question: How did the IC50 turn out when O=C(CN1CCC(N(C2CC2)S(=O)(=O)c2cccc(C(F)(F)F)c2)CC1)Nc1ccc(Cl)cc1OC(F)(F)F [Compound 76, N-(4-Chloro-2-trifluoromethoxyphenyl)-2-{4-[cyclopropyl-(3-trifluoromethylbenzenesulfonyl)amino]-piperidin-1-yl}-acetamide] was run?
Answer: 1.83 µM

Question: How did the IC50 turn out when O=C(CN1CCC(N(C2CC2)S(=O)(=O)c2cccc(C(F)(F)F)c2)CC1)Nc1ccc(C(F)(F)F)cc1C(F)(F)F [Compound 72, N-(2,4-Bis-trifluoromethylphenyl)-2-{4-[cyclopropyl-(3-trifluoromethylbenzenesulfonyl)amino]-piperidin-1-yl}-acetamide] was run?
Answer: > 20 µM

Question: With COc1ccc(Cl)cc1NC(=O)CN1CCC(N(C2CC2)S(=O)(=O)c2cccc(C(F)(F)F)c2)CC1 [Compound 82, N-(5-Chloro-2-methoxyphenyl)-2-{4-[cyclopropyl-(3-trifluoromethyl-benzenesulfonyl)amino]-piperidin-1-yl}-acetamide] as the molecule, how does the IC50 read?
Answer: 3.99 µM

Question: With O=C(CC(=O)N1CCC(N(C2CC2)S(=O)(=O)c2cccc(C(F)(F)F)c2)CC1)Nc1ccc(F)cc1F [Compound 27, 3-{4-[Cyclopropyl-(3-trifluoromethylbenzenesulfonyl)amino]-piperidin-1-yl}-N-(2,4-difluorophenyl)-3-oxo-propionamide] as the molecule, how does the IC50 read?
Answer: 1.33 µM

Question: O=C(CN1CCC(N(C2CC2)S(=O)(=O)c2cccc(Cl)c2)CC1)Nc1cc(C(F)(F)F)cc(C(F)(F)F)c1 [Compound 66, N-(3,5-Bis-trifluoromethylphenyl)-2-{4-[(3-chlorobenzenesulfonyl)-cyclopropylamino]-piperidin-1-yl}-acetamide] was tested. Which IC50 did it give?
Answer: 2.53 µM

Question: CC(C)CNC(=O)CCN1CCC(N(C(C)C)S(=O)(=O)c2cccc(C(F)(F)F)c2)CC1 [Compound 107c, N-Isobutyl-3-{4-[isopropyl-(3-trifluoromethylbenzenesulfonyl)amino]-piperidin-1-yl}-propionamide] was tested. Which IC50 did it give?
Answer: 2 µM
